The values below are quoted from earlier work in patent publication US20160201132A1, “GENE EXPRESSION BIOMARKERS OF LAQUINIMOD RESPONSIVENESS” (Teva Pharmaceutical Industries Ltd., priority 2013, published 2016).

This data set has as its system RRMS patients. The following applies: cited from earlier work.

For the compound `CCN(C(=O)c1c(O)c2c(Cl)cccc2n(C)c1=O)c1ccccc1` [LAQ, 5-chloro-N-ethyl-4-hydroxy-1-methyl-2-oxo-N-phenyl-1,2-dihydroquinoline-3-carboxamide], the annualized relapse rate entry (RRMS patients treated for 24 months) was “modestly decreased”. For the same compound, the “safety and tolerability profile” value (two phase III trials (BRAVO, ALLEGRO)) was “favorable”.
